Assay results: PMC12040169 (PLOS Biology, 2025)

Assay: in vitro
Settings: human, hela cells, % viability

Compound	viability at 28.5 h, 10 µM [%]	viability at 28.5 h, 10 µM (bulk resorufin, single well) [%]
Cc1cccc(CCNC(=O)CC2CCN(C(=O)CC3CCCCC3)CC2)c1 [CBK285964]	114	
CC(C)n1nccc1C(=O)NCC(c1ccccc1F)N1CCCC1 (stereo not shown) [CBK283032]	94.1	
CCN(CC(=O)N1CCN(C)CC1)S(=O)(=O)c1cc(Cl)ccc1Cl [CBK269297]	104	
O=c1[nH]c2ccccc2n1CCCN1CCC[C@@H]1CN1CCCC1 [CBK137111T]	93.5	
Cc1nc(C(Cc2ccsc2)NC(=O)C2CCC(=O)N2)sc1C (stereo not shown) [CBK284780]	101	
O=[N+]([O-])c1ccc(COc2cccc(/C=N/Nc3nc4ccccc4s3)c2)cc1 [CBK262160]	87.8	
COc1cnc(-c2ccccc2OC)c(NC(=O)c2ccccc2)n1 [CBK145261]	101	
COc1cc(CN2CCNC(=O)C2CC(=O)O)cc(OC)c1 (stereo not shown) [CBK269752]	105	
CN(Cc1ccccc1)S(=O)(=O)c1ccc(OCC(=O)O)cc1 [CBK276426]	97.9	
Cc1cccc([C@@H]2CN(Cc3ccccc3)C[C@]23CCCCC(=O)N3)n1 [CBK283341]	97.1	
Cc1cc2nc3s/c(=C\c4ccc(-c5ccc(O)c(C(=O)O)c5)o4)c(=O)n3c2cc1C [CBK262538]	100	
NC(=O)CO[C@@H]1CO[C@H]2[C@@H]1OC[C@@H]2NCc1ccccc1 [CBK289479]	112	
CS(=O)(=O)N1CCCc2cc(-c3csc(N)n3)ccc21 [CBK305859]	86.4	
O=C(CCCc1ccccn1)N(Cc1ccccn1)C1CCCC1 [CBK282033]	99.9	
Cc1cc(C)c2c(NCc3ccc(C)o3)n[nH]c2n1 [CBK284621]	94.9	
COc1ccc(/C=C/C(=O)O)cc1S(=O)(=O)Nc1ccc(C(=O)O)cc1 [CBK261246]	108	
O=C1NC(=S)N(c2ccc(F)cc2)C(=O)/C1=C\NC1CCN(Cc2ccccc2)CC1 [CBK261825]		93
CSCCC(NC=C1C(=O)CC(C)(C)CC1=O)C(=O)O (stereo not shown) [CBK261311]	92.9	
COc1ccc(CNC(=O)c2cn[nH]c2-c2ccccc2)c(OC)c1 [CBK288057]	100	
COc1nc2ccccc2nc1CCc1nc(-c2ccccc2)no1 [CBK269840]	86	
O=C(c1ccccc1F)N1C[C@H](c2ccsc2)[C@H]2CN(Cc3ccccc3)CC[C@H]21 [CBK285655]	96.5	
O=C(OCc1ccc([N+](=O)[O-])cc1)C1CCN(S(=O)(=O)c2cccc3cccnc23)CC1 [CBK264430]	115	

Compound	viability at 28.5 h, 10 µM [%]	viability at 28.5 h, 10 µM (bulk resorufin, single well) [%]
CC(C)CC(=O)NC(N=C(S)Nc1sc2c(c1C#N)CCCC2)C(Cl)(Cl)Cl (stereo not shown) [CBK261049]	85.2	
O=C(CCCN1C(=O)c2cccc3cccc(c23)C1=O)N1CCN(Cc2ccc3c(c2)OCO3)CC1 [CBK074370]	72.6	
COc1cccc(C(=O)NC(c2ccc(OC)c(OC)c2)c2cc(Cl)c3cccnc3c2O)c1 (stereo not shown) [CBK264048]	95.4	
CCNC(=O)Nc1nn(Cc2ccc(OC)cc2)c2ccccc12 [CBK105837]	94.6	
O=C(c1cc2c(F)cccc2[nH]1)N(CCO)CCc1ccncc1 [CBK281644]	98.3	
CCN(CC)CCn1c(=N)n(CC(=O)c2ccc(Cl)c(Cl)c2)c2ccccc21 [CBK263455B]	91.5	
O=C(Nc1ccc(S(=O)(=O)Nc2nccs2)cc1)C1CC(=O)N(c2ccccc2)C1 (stereo not shown) [CBK264732]	104	
CC(Cn1cncc1-c1cnn(C)c1)Oc1ccccc1Cl (stereo not shown) [CBK281737]	105	
C#CCNC(=O)C1CCN(c2nc3ccccc3n2CC)CC1 [CBK283923]	89.4	
Cc1ccc2c(c1)nc(-c1ccc(O)cc1)n2Cc1ccc(O)cc1 [CBK291226]	77.4	
Cc1cccc(=O)n1CCC(=O)N1CCCCC1CN1CCOCC1 (stereo not shown) [CBK306528]	109	
O=C(NC(c1ccc(Cl)cc1)c1cnccn1)C1CCN(C(=O)N2CCOCC2)CC1 (stereo not shown) [CBK059635]	96.7	
CCSCCN1CCC(Oc2nccnc2OCc2ccc(Br)cc2F)CC1 [CBK161087]	98.7	
N#Cc1cccc(NC(=O)NC[C@H]2C[C@@H]3CC[N@]2C[C@@H]3CN2CCOCC2)c1 [CBK288763]	108	
C=C(C)CNC(=O)c1ccc(C)nc1N1CCOCC1 [CBK076389]	93.5	
CS(=O)(=O)NC1c2cccc3cccc(c23)C1N1CCOCC1 (stereo not shown) [CBK265845]	102	
COCC(=O)N[C@H]1C[C@H]2C(=O)Nc3ccc(-c4ccsc4)cc3C(=O)N2C1 [CBK289360]	96.6	
O=[N+]([O-])c1cccc(/C=N/Nc2nc(-c3ccccc3)cc(-c3ccccc3O)n2)c1 [CBK261722]	95.8	
COc1ccc2c(CN(C)Cc3cc(C)[nH]n3)cn(C)c2c1 [CBK281734]	103	
C[C@H](Nc1cncc(-c2cccc(CO)c2)n1)c1ccccc1 [CBK065512]	102	
Nc1cccc(-c2cc(Nc3ccc(C4CCCCC4)cc3)ncn2)c1 [CBK091191]	88.8	
O=C(Oc1ccccc1O)c1cccc(Cl)c1 [CBK090130]	97.1	

Compound	viability at 28.5 h, 10 µM [%]	viability at 28.5 h, 10 µM (bulk resorufin, single well) [%]
Brc1ccc(CSc2nc[nH]n2)cc1 [CBK026361]	85.3	
Cc1cc(O)nc(C(C)N2CCCN(CC(F)(F)F)CC2)n1 (stereo not shown) [CBK305491]	88.6	
CNC(=O)c1cc(NC(=O)NCC2CC(=O)N(CCOC)C2)ccc1F (stereo not shown) [CBK304403]	107	
CN(C)C(=O)c1sc2ccccc2c1Cl [CBK067817]	82.4	
Cc1ccc(C(=O)N(Cc2nc(-c3ccc(Cl)cc3)no2)C(C)C)cc1[N+](=O)[O-] [CBK268422]	98.7	
COc1ccccc1N1CCN(C(=O)NCCc2c[nH]cn2)CC1 [CBK155369]	98.8	
CCOc1ccc(NC(=O)C(C)O)c(NS(=O)(=O)c2ccc3ccccc3c2)c1 (stereo not shown) [CBK268309]	87.6	
Nc1ncnc2c1nc(OCc1ccccc1)n2C1CC(O)C(CO)O1 (stereo not shown) [CBK201164]	94.9	
O=C(C1CCCO1)N1CCCCCC1c1cc(-c2cccs2)on1 (stereo not shown) [CBK284340]	97.6	
CCC1CCCCN1C(=O)c1cccc(OC)c1 (stereo not shown) [CBK081504]	98	
O=C1NC(=O)C(=CNCCN2CCN(C(=O)c3ccccc3)CC2)C(=O)N1 [CBK265190]		90.5
CCNC(=O)CN1CCN(c2ccc(C#N)cc2C(F)(F)F)CC1 [CBK306112]	85	
COc1ccc(CCNC(=S)N2CCN(c3ccccn3)CC2)cc1OC [CBK266897]	94.5	
CC1Cc2cc(C(O)CN3CCCC3)ccc2N1C(=O)C1CC1 (stereo not shown) [CBK286440]	94.9	
CN(/N=C/c1cc(Br)cs1)c1ccc(Cl)nn1 [CBK028729]	94.1	
O=C(NCc1ccc(Cl)c(Cl)c1)N1CCN(Cc2ccccc2)CC1 [CBK155624]	85.3	
COc1cc(F)cc(OC2CCNCC2)c1NC(=O)c1cnccn1 [CBK050296T]	90.3	
CC(C(=O)NCCC1=CCCCC1)N1CCOC(Cn2cccn2)C1 (stereo not shown) [CBK305319]	101	
Cc1c(C)c2c(O)n(-c3ccccc3)nc2[nH]c1=O [CBK287891]	89.3	
Cc1cccc(Cl)c1OCC(O)CNCCc1ccccc1 (stereo not shown) [CBK003076]	102	
O=C(C[C@@H]1O[C@H](CNS(=O)(=O)c2ccccc2)[C@@H](O)[C@H]1O)N1CCc2ccccc21 [CBK288916]	91.2	
N#Cc1sc2nc(-c3ccncc3)ccc2c1N [CBK288547]	78.3	

Compound	viability at 28.5 h, 10 µM [%]	viability at 28.5 h, 10 µM (bulk resorufin, single well) [%]
Cc1nn(CC(=O)NC2CCCCC2)c(=O)c2cc3ccsc3n12 [CBK284080]	94.9	
CSCc1ccc(C(=O)Nc2cc(C(=O)O)ccc2C)cc1 [CBK297107]	93	
CCNCCOc1c(C)cc(C)cc1C [CBK270137C]	108	
COc1ccc(-c2nc(-c3ccncc3)ncc2C(=O)NCc2ccncc2)cc1 [CBK291112]	96.4	
O=C(c1nccc2ccccc12)N1CCc2ccccc21 [CBK200405]	93.5	
CCOC(=O)c1cccc(NS(=O)(=O)c2cccc3cccnc23)c1 [CBK034345]	57.2	
Cc1ccnc(N2CCOC3(CCCC3)C2)n1 [CBK304794]	93.1	
O=C(N[C@H]1C[C@H]2C(=O)NC[C@@H](CCC(=O)N3CCCCC3)N2C1)c1cccc(F)c1 [CBK289011]	85	
COCCN1CC(CNC(=O)c2cccc(F)c2O)CC1=O (stereo not shown) [CBK304386]	107	
O=C(Nc1ccc(Oc2ccccc2)cc1)c1cc([N+](=O)[O-])cc2cn[nH]c12 [CBK293985]	82.5	
O=C(CSc1nnc2[nH]c(=O)ccn12)NCc1ccccc1Cl [CBK287684]	95.1	
Cc1ccc(-c2ccccc2CC2(C(=O)O)CCN(Cc3ccccc3F)CC2)c(C)c1 [CBK286418]	96.7	
Cc1nc(CN2CCN(C(=O)NCCc3cnn(C)c3)CC2)cs1 [CBK305614]	81.3	
COC(=O)c1ccccc1NC(=O)C1CCCN(S(=O)(=O)c2cc(Cl)ccc2Cl)C1 (stereo not shown) [CBK268797]	101	
CCc1nn(CC(=O)NC(C)(C)C)c(=O)c2cc3sc(C)cc3n12 [CBK284124]	83.9	
Cc1cc(CNC(=O)CCc2c(C)nc3nc(N)nn3c2C)ccc1F [CBK306212]	91.9	
Cc1ccsc1C(=O)Nc1ncn(CC(=O)N2CCCCCC2)n1 [CBK304192]	92.5	
O=C(O)c1cccc(NC(=O)C2CCCCC2C(=O)O)c1 (stereo not shown) [CBK261538]	96.6	
Cc1ccc(OCCCSc2nnc(N)[nH]2)cc1 [CBK269215A]	89.1	
CN1CCN(C(=O)c2cccc(-c3nccnc3NCc3cccc(Cl)c3)c2)CC1 [CBK037048]	108	
c1ccc(OCc2nn3c(Cn4nnc5ccccc54)nnc3s2)cc1 [CBK268330]	95.9	
COc1ccc(/C=C(/C(=O)NCc2ccc(Cl)cc2Cl)c2ccccc2)cc1 [CBK265256]	89.9	
